Legend:
Test in all cases: cell-free ADP-Glo Kinase Assay
Type in all cases: biochemical
Conditions in all cases: read-out: Experimental validation pIC50 (converted)
[1] = biological target: SRC (Homo sapiens, UniProt P12931)
[2] = biological target: T1, AXL (Homo sapiens, UniProt P30530)
T1 sequence (P30530 26-894): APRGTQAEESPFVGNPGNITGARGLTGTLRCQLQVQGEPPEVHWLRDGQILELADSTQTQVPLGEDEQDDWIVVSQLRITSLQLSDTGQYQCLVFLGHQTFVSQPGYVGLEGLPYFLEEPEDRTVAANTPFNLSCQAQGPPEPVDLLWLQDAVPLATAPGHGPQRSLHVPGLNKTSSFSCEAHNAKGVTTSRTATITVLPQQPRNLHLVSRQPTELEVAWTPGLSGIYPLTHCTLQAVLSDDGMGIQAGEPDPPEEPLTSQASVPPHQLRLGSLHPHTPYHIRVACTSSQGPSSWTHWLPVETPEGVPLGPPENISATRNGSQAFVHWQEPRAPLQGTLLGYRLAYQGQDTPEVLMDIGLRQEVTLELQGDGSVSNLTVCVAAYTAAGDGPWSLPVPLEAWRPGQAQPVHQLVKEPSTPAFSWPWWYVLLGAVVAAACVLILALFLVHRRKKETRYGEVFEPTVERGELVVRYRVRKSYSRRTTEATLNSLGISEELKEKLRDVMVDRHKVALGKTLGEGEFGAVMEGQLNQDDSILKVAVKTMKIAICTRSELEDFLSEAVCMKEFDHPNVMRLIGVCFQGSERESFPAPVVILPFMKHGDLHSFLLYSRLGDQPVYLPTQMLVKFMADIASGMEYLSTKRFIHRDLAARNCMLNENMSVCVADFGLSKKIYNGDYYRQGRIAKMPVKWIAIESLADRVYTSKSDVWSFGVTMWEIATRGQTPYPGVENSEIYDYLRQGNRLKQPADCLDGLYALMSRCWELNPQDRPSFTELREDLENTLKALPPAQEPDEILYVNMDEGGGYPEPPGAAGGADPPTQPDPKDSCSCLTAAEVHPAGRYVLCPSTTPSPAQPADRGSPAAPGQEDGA

[3] = biological target: BRK (Homo sapiens, UniProt Q13882)
[4] = biological target: FYN A (Homo sapiens, UniProt P06241)
Sequence of FYN A (P06241 whole entry): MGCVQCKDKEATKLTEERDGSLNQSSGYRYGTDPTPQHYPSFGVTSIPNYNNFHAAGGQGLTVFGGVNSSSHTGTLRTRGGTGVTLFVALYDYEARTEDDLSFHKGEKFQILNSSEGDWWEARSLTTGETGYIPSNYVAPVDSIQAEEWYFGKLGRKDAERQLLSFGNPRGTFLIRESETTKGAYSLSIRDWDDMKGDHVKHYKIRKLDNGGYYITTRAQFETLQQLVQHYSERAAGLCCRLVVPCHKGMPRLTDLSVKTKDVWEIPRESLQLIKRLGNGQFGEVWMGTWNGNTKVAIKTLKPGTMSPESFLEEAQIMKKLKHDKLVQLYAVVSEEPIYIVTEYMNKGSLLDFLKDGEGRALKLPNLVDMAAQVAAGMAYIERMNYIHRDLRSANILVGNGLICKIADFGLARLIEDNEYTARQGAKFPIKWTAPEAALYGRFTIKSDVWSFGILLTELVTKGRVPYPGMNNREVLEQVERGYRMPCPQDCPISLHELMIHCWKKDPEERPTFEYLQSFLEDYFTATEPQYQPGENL

Sequence of SRC (P12931 whole entry): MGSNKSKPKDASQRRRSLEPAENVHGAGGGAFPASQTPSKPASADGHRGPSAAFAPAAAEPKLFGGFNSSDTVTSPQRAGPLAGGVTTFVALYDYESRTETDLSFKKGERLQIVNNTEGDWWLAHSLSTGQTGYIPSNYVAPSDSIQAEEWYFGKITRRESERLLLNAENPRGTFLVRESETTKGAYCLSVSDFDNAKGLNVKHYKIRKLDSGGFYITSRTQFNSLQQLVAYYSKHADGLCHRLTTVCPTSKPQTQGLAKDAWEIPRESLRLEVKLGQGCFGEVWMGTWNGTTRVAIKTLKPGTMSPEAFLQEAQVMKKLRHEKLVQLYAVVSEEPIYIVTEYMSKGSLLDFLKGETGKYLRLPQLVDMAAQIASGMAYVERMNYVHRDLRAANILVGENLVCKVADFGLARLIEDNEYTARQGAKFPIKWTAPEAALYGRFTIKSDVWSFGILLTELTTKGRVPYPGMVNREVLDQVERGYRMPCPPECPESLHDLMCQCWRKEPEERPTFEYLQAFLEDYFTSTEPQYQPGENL
Sequence of BRK (Q13882 whole entry): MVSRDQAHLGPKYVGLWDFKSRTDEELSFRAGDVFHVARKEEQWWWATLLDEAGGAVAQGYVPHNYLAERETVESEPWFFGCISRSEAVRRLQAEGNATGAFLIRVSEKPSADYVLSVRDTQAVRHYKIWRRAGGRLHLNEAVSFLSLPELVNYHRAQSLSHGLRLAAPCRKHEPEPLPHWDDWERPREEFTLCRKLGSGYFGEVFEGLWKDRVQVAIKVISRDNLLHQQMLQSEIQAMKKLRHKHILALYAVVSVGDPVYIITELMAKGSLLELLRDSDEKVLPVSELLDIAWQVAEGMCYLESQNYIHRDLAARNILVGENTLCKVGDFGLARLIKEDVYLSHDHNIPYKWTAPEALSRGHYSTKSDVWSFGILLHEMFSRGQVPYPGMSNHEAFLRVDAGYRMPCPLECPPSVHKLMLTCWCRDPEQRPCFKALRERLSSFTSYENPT

- IC50 [1]: 724 nM
- IC50 [2]: 3090 nM
- IC50 [3]: 166 nM
- IC50 [4]: 135 nM
Structure (SMILES): COc1cc2c(Oc3ccc4[nH]c(C)cc4c3F)ncnc2cc1OCCCN1CCCC1 [Cediranib]
